Reference: patent US7781428B2 (Pfizer Inc., priority 2006, dated 2010)
Where a name gives a salt, the structure may show the parent alone.

Molecular target: T1, mineralocorticoid receptor (MR) (Homo sapiens, UniProt P08235)
T1 construct: expressed in transfected cells; host or cells: Huh7 (human liver cells)
T1 sequence (P08235 726-964 limits assumed): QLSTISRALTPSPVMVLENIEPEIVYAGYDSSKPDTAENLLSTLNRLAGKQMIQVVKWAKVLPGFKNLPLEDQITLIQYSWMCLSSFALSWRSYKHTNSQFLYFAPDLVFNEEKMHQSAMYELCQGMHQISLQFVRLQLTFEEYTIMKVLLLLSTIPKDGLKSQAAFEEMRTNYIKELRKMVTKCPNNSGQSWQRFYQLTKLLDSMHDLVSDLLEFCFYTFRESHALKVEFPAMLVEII
Experiment: Cell-based Gal4 response element-controlled luciferase reporter assay (MR antagonism)
Details: Huh7 human liver cells transfected with Gal4 DBD-MR LBD fusion and luciferase reporter; block of agonist-induced activation; overnight incubation
Text: Method 1: Cell-based Gal4 Response Element-controlled Luciferase Reporter Assay
An in vitro assay can be used to evaluate mineralocorticoid receptor (MR) antagonism by a test compound. […] An agonist of the receptor can bind to and activate the receptor LBD, which activate the expression of the Gal4 response element containing luciferase reporter gene. Antagonists can compete for binding to the receptor LBDs and decrease the transcription activity of the reporter gene. Measurement of luciferase activity allows quantitative determinations of the reporter transcription in the presence of either agonists or agonists and antagonists in combination. β-galactosidase activity, which is unaffected by ligand, is used to normalize the transfection efficiency in the cell population.
Huh7 cells were plated in RPMI1640+10% fetal bovine serum (Invitrogen Corporation, San Diego, Calif.), at 10,000 cells per well in 96-well tissue culture dishes for approximately 24 hours. Cells were then transfected using FuGENE™ 6 Transfection Reagent according to manufacturers' instructions (Roche Molecular Biochemicals, Indianapolis, Ind.). Approximately 20 hours after transfection, media were removed. Cells were washed once with PBS and treated (n=6/group) with agonist for each receptor (all chemicals from Sigma, St. Louis, Mo.), and with compounds. Agonist concentrations represent 70-80% of full activation of each receptor.
Compounds were dissolved in DMSO at 10 mM and diluted to final concentrations in phenol red-free media that contained 10% charcoal- and dextran-stripped serum (Life Technologies, Gathersburg, Md.). Following overnight incubation (18-20 hours) with compounds, the medium was removed and replaced with 100 μL per well of PBS and 100 μL of Steady-Glo™ lysis buffer with luciferase substrate (Promega Corporation, Madison, Wis.). After a 30-minute incubation to completely lyse the cells, 100 μL of the lysate was transferred to a black, Dynatech Microfluor assay plates (Dynex Corporation, Chantilly, Va.) to measure luciferase activity. The plate was sealed with TopSeal self-adhesive film, dark-adapted for 5 minutes, then counted in a TopCount Plate Reader (Packard Instrument Company, Meriden, Conn.) in single photon counting mode. The remaining lysate was used for determination of β-galactosidase activity. In a clear 96-well assay plate, 100 μL of cell lysate was added to 100 μL β-galactosidase assay buffer per well. The assay buffer consisted of 60 mM Na2HPO4, 40 mM NaH2PO4, 10 mM KCl, 1 mM MgSO4, 50 mM β-mercaptoethanol, and 2.5 mg/mL ONPG, the latter two reagents were added just prior to assay (all chemicals from Sigma). The reaction was allowed to proceed until a distinct yellow color developed. Reactions were stopped by the addition of 100 μL per well 1 M Na2CO3 and plates were read at 420 nm in Victor-2 (Perkin Elmer Life Sciences, Boston, Mass.). Values (relative luciferase activity) for each sample were expressed as a ratio of luciferase activity to OD420β-galactosidase activity measured in arbitrary units for each well. […] “b” is the slope, “c” is the IC50 or EC50. “x” is the concentration of the compound and “y” the activity at that concentration.

SMILES | IC50
CN(C)Cc1cc(N2N=C3c4ccc(C(=O)O)cc4CCC3C2C2CCCC2)ccc1C#N (racemic) [Example 29, 2-(4-cyano-3-((dimethylamino)methyl)phenyl)-3-cyclopentyl-3,3a,4,5-tetrahydro-2H-benzo[g]indazole-7-carboxylic acid trifluoroacetate] | > 1000 nM
N#Cc1ccc(N2N=C3c4ccc(C(=O)O)cc4CCC3C2C2CCCC2)cc1 (racemic) [Example 18, 2-(4-cyanophenyl)-3-cyclopentyl-3,3a,4,5-tetrahydro-2H-benzo[g]indazole-7-carboxylic acid] | 89 nM
N#Cc1ccc(N2N=C3c4ccc(C(=O)O)cc4OC[C@@H]3[C@@H]2c2ccc(F)cc2)cc1 [Example 59, (3R,3aR)-2-(4-cyanophenyl)-3-(4-fluorophenyl)-2,3,3a,4-tetrahydrochromeno[4,3-c]pyrazole-7-carboxylic acid] | > 1000 nM
N#Cc1ccc(N2N=C3c4ccc(C(=O)O)cc4OCC3C2C2=CCCC2)cc1Cl (racemic) [Example 78, (±)-(3RS,3aRS)-2-(3-chloro-4-cyanophenyl)-3-cyclopentenyl-2,3,3a,4-tetrahydrochromeno[4,3-c]pyrazole-7-carboxylic acid] | 70 nM
N#Cc1ccc(N2N=C3c4ccc(C(=O)O)cc4CCC3C2c2ccno2)cc1 (racemic) [Example 52, 2-(4-cyanophenyl)-3-isoxazol-5-yl-3,3a,4,5-tetrahydro-2H-benzo[g]indazole-7-carboxylic acid] | 4980 nM
N#Cc1ccc(N2N=C3c4ccc(C(=O)O)cc4CC[C@@H]3[C@@H]2c2ccoc2)cc1Cl [Example 47, (3R,3aR)-2-(3-chloro-4-cyanophenyl)-3-(3-furyl)-3,3a,4,5-tetrahydro-2H-benzo[g]indazole-7-carboxylic acid] | 18 nM
COc1cc(N2N=C3c4ccc(C(=O)O)cc4CCC3C2C2CCCC2)ccc1C#N (racemic) [Example 25, 2-(4-cyano-3-methoxyphenyl)-3-cyclopentyl-3,3a,4,5-tetrahydro-2H-benzo[g]indazole-7-carboxylic acid] | 7 nM
Cc1cc(N2N=C3c4ccc(C(=O)O)cc4OC[C@H]3[C@H]2C2CCCC2)ccc1C#N (single isomer, unassigned) [Example 63] | > 1000 nM
C[C@]12CCc3cc(C(=O)O)ccc3C1=NN(c1ccc(C#N)c(Cl)c1)[C@H]2C1CCCC1 [Example 94, (3S,3aR)-2-(3-chloro-4-cyanophenyl)-3-cyclopentyl-3a-methyl-3,3a,4,5-tetrahydro-2H-benzo[g]indazole-7-carboxylic acid] | 25 nM
CS(=O)(=O)CCNC(=O)c1ccc2c(c1)CC[C@H]1C2=NN(c2ccc(C#N)c(Cl)c2)[C@H]1C1CCCC1 [Example 114, (3S,3aR)-2-(3-chloro-4-cyanophenyl)-3-cyclopentyl-N-(2-(methylsulfonyl)ethyl)-3,3a,4,5-tetrahydro-2H-benzo[g]indazole-7-carboxamide] | 1 nM
N#Cc1ccc(N2N=C3c4ccc(C(=O)NCC(=O)NCC(=O)O)cc4CC[C@@H]3[C@@H]2c2ccc(F)cc2)cc1Cl (racemic) [Example 110, (±)-2-(2-((3RS,3aRS)-2-(3-chloro-4-cyanophenyl)-3-(4-fluorophenyl)-3,3a,4,5-tetrahydro-2H-benzo[g]indazole-7-carboxamido)acetamido)acetic acid] | > 1000 nM
N#Cc1ccc(N2N=C3c4ccc(C(=O)O)cc4CCC3C2C2CCNCC2)cc1Cl (racemic) [Example 38, 2-(3-chloro-4-cyanophenyl)-3-(piperidin-4-yl)-3,3a,4,5-tetrahydro-2H-benzo[g]indazole-7-carboxylic acid trifluoroacetate] | > 1000 nM
Cc1nc(N2N=C3c4ccc(C(=O)O)cc4CCC3C2C2CCCC2)ccc1C#N (racemic) [Example 24, 2-(5-cyano-6-methylpyridin-2-yl)-3-cyclopentyl-3,3a,4,5-tetrahydro-2H-benzo[g]indazole-7-carboxylic acid] | 8 nM
Cc1cc(N2N=C3c4ccc(C(=O)O)cc4OCC3C2C(C)C)ccc1C#N (stereo not drawn) [Example 73, 2-(4-cyano-3-methylphenyl)-3-isopropyl-2,3,3a,4-tetrahydrochromeno[4,3-c]pyrazole-7-carboxylic acid] | 167 nM
N#Cc1ccc(N2N=C3c4ccc(C(=O)O)cc4CCC3C2c2ccco2)cc1Cl (racemic) [Example 43, 2-(3-chloro-4-cyanophenyl)-3-(2-furyl)-3,3a,4,5-tetrahydro-2H-benzo[g] indazole-7-carboxylic acid] | 21 nM
C[S+]([O-])CCNC(=O)c1ccc2c(c1)CC[C@H]1C2=NN(c2ccc(C#N)c(Cl)c2)[C@H]1C1CCOCC1 (mixture of isomers) [Example 99] | 14 nM
Cc1cc(N2N=C3c4ccc(C(=O)O)cc4CC[C@@H]3[C@@H]2C2CCCC2)ccc1C#N (single isomer, unassigned) [Example 22] | 4 nM
N#Cc1ccc(N2N=C3c4ccc(C(=O)O)cc4OCC3C2C2CCCC2)cc1Cl (racemic) [Example 64, 2-(3-chloro-4-cyanophenyl)-3-cyclopentyl-2,3,3a,4-tetrahydrochromeno[4,3-c]pyrazole-7-carboxylic acid] | 65 nM

Results, then the molecule that gave them:

IC50 | SMILES
205 nM | N#Cc1ccc(N2N=C3c4ccc(C(=O)O)cc4CC[C@@H]3[C@@H]2c2ccc(F)cc2)cc1 [Example 11, (3R,3aR)-2-(4-cyanophenyl)-3-(4-fluorophenyl)-3,3a,4,5-tetrahydro-2H-benzo[g]indazole-7-carboxylic acid]
81 nM | Cc1cc(N2N=C3c4ccc(C(=O)O)cc4CCC3C2c2ccc(F)cc2)ccc1C#N (racemic) [Example 6, 2-(4-cyano-3-methylphenyl)-3-(4-fluorophenyl)-3,3a,4,5-tetrahydro-2H-benzo[g]indazole-7-carboxylic acid]
995 nM | CS(=O)(=O)NC(=O)c1ccc2c(c1)CC[C@H]1C2=NN(c2ccc(C#N)c(Cl)c2)[C@H]1c1ccc(F)cc1 (racemic) [Example 113, (±)-(3RS,3aRS)-2-(3-chloro-4-cyanophenyl)-3-(4-fluorophenyl)-N-(methylsulfonyl)-3,3a,4,5-tetrahydro-2H-benzo[g]indazole-7-carboxamide]
49 nM | Cc1cc(N2N=C3c4ccc(O)cc4CCC3C2c2ccc(F)cc2)ccc1C#N (stereo not drawn) [Example 80]
705 nM | N#Cc1ccc(N2N=C3c4ccc(O)cc4CCC3C2c2ccc(F)cc2)cc1 (racemic) [Example 89, (±)-4-((3RS,3aRS)-3-(4-fluorophenyl)-7-hydroxy-3,3a,4,5-tetrahydrobenzo[g]indazol-2-yl)benzonitrile]
77 nM | N#Cc1ccc(N2N=C3c4ccc(O)cc4CCC3C2c2ccc(F)cc2)cc1C(F)(F)F (racemic) [Example 83]
13 nM | C[S+]([O-])CCNC(=O)c1ccc2c(c1)CC[C@@H]1C2=NN(c2ccc(C#N)c(Cl)c2)[C@H]1c1ccc(F)cc1 (mixture of isomers) [Example 98, (±)-(3RS,3aSR)-2-(3-chloro-4-cyanophenyl)-3-(4-fluorophenyl)-N-(2-(methylsulfinyl)ethyl)-3,3a,4,5-tetrahydro-2H-benzo[g]indazole-7-carboxamide]
122 nM | N#Cc1ccc(N2N=C3c4ccc(C(=O)NCCCCC(=O)O)cc4CC[C@@H]3[C@@H]2c2ccc(F)cc2)cc1Cl (racemic) [Example 104, (±)-5-((3RS,3aRS)-2-(3-chloro-4-cyanophenyl)-3-(4-fluorophenyl)-3,3a,4,5-tetrahydro-2H-benzo[g]indazole-7-carboxamido)pentanoic acid]
86 nM | N#Cc1ccc(N2N=C3c4ccc(O)cc4CCC3C2c2ccc(F)cc2)cc1Cl (racemic) [Example 86, 2-chloro-4-(-3-(4-fluorophenyl)-7-hydroxy-3,3a,4,5-tetrahydrobenzo[g]indazol-2-yl)benzonitrile]
